Where “and” joins values, the source holds several entries; their conditions need not be identical. Equal entries are not always repeated.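 Results reflect a 48-hour exposure of cells in 96-well plates to compound at five concentrations. The concentration for 50% growth inhibition is given as GI50. TGI marks complete inhibition of growth.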
Key:
Experiment in all cases: NCI anticancer screen, dose series, 48 h
SR leukemia = tested on: SR leukemia
OVCAR-3 ovarian = tested on: OVCAR-3 ovarian
UO-31 renal = tested on: UO-31 renal
SK-OV-3 ovarian = tested on: SK-OV-3 ovarian
786-0 renal = tested on: 786-0 renal
KM12 colon = tested on: KM12 colon
BT-549 breast = tested on: BT-549 breast
DU-145 prostate = tested on: DU-145 prostate
TK-10 renal = tested on: TK-10 renal
SK-MEL-5 melanoma = tested on: SK-MEL-5 melanoma

Row | Compound | TGI (SR leukemia) [µM] | TGI (OVCAR-3 ovarian) | TGI (UO-31 renal) [µM] | TGI (SK-OV-3 ovarian) | TGI (786-0 renal) [µM] | TGI (KM12 colon) [µM] | TGI (BT-549 breast) [µM] | TGI (DU-145 prostate) [µM] | TGI (TK-10 renal) [µM] | GI50 (SR leukemia) | GI50 (OVCAR-3 ovarian) | GI50 (UO-31 renal) [µM] | GI50 (SK-OV-3 ovarian) | GI50 (786-0 renal) | GI50 (KM12 colon) | GI50 (BT-549 breast) [µM] | GI50 (DU-145 prostate) | GI50 (TK-10 renal) [µM] | GI50 (SK-MEL-5 melanoma) | TGI (SK-MEL-5 melanoma)
1 | COS(C)(=O)=O | > 2 | > 2 µM | > 2 | > 2 µM | > 2 | > 2 | > 2 | > 2 | > 2 | – | – | – | – | – | – | – | – | – | – | –
2 | COc1ccc(-c2cc(-c3ccc(Cl)cc3)nc(NCCCCNc3ccnc4cc(Cl)ccc34)n2)cc1 | > 100 | 3.11 µM | 12.7 | 27.3 µM | 3.02 | 3.72 | 28.6 | 4.79 | 13.3 | 0.708 µM | 1.65 µM | 1.83 | 13 µM | 1.62 µM | 1.9 µM | 13.4 | 2.25 µM | 3.95 | 1.7 µM | 3.08 µM
3 | CS(=O)(=O)c1cccc(Nc2ncc3cc(-c4ccccc4Cl)ccc3n2)c1 | > 33.3 | > 33.3 µM | 6.41 | 2.99 µM | > 33.3 | > 33.3 | 27.8 | > 33.3 | 17.3 | 0.8 µM | 1.52 µM | 0.803 | 0.883 µM | 1.38 µM | 1.2 µM | 2.11 | 1.42 µM | 1.9 | 1.08 µM | 4.04 µM
4 | CC1=C(C(=O)Nc2ccc(F)c(Cl)c2)C(c2cccc(Oc3ccccc3)c2)NC(=S)N1 (stereo unspecified) | > 50 | 28.6 µM | 44.3 | 43.3 µM | 21.5 | > 50 | 32.4 | > 50 | > 50 | 14.3 µM | 11.3 µM | 13.3 | 15.9 µM | 10.8 µM | 18.8 µM | 14.1 | 21.2 µM | 16.3 | 10.2 µM | 19.6 µM
5 | CC(=O)Nc1ccc(S(=O)(=O)N=S(C)C)cc1 | > 100 | > 100 µM | > 100 | > 100 µM | > 100 | > 100 | > 100 | > 100 | > 100 | – | – | – | – | – | – | – | – | – | – | –
6 | CCN1C(=O)N(CC)C2C1NN=c1s/c(=C3\C(=O)N(C4CCCC4)c4ccccc43)c(=O)n12 (stereo unspecified) | > 100 | 2.09 µM | – | 27.8 µM | 4.86 | > 100 | 7.84 | 6.59 | 9.89 | 0.392 µM | 0.516 µM | – | 2.45 µM | 1.71 µM | 0.689 µM | 2.03 | 2.25 µM | 2.78 | – | –
7 | Cc1nc2sc3c(N)ncnc3c2c(C)c1C | > 25 | > 25 µM | > 25 | > 25 µM | > 25 | > 25 | > 25 | > 25 | > 25 | > 25 µM | > 25 µM | > 25 | > 25 µM | > 25 µM | > 25 µM | > 25 | > 25 µM | > 25 | > 25 µM | > 25 µM
8 | COc1cc([N+](=O)[O-])c(S(=O)(=O)O)cc1-n1nc(C(=O)Nc2ccccc2)n[n+]1-c1cc(S(=O)(=O)[O-])c([N+](=O)[O-])cc1OC | > 100 | > 100 µM | > 100 | > 100 µM | > 100 | > 100 | > 100 | > 100 | > 100 | – | – | – | – | – | – | – | – | – | – | > 100 µM
9 | COc1cc(-c2nc3ccccc3o2)cc(CN2CCCCC2)c1O | 71.9 | 39.7 µM | 21.8 | > 74.1 µM | 89.8 | 16.6 | 9.16 | 3.33 | > 85.8 | 5.24 µM | 2.75 µM | 1.92 | 30.2 µM | 20.3 µM | 2.39 µM | 2.45 | 1.82 µM | 31.2 | 1.09 µM | 2.3 µM
10 | CCN(CC)c1ccc(-c2cc(-c3cc(OC)c(OC)c(OC)c3)nc(N3CCC(O)CC3)c2C#N)cc1 | 2.61 | 3.02 µM | 1.82 | > 31.6 µM | 20.3 | 2.98 | 3.89 | 14.6 | 6.92 | 0.399 µM | 1.17 µM | 0.274 | 1.8 µM | 0.337 µM | 0.512 µM | 0.911 | 0.877 µM | 1.1 | 0.156 µM | 0.365 µM
11 | Clc1cccc(CNc2c3ccccc3nc3ccccc23)c1 | 4.55 | 4.56 µM | 3.13 | 13.2 µM | 3.2 | 7.7 | 7.19 | 7.17 | 8.99 | 1.47 µM | 2.1 µM | 1.14 | 3.12 µM | 1.66 µM | 2.49 µM | 2.34 | 2.57 µM | 2.95 | 1.72 µM | 3.13 µM
12 | Oc1ccc(C(O)(c2ccccc2)c2ccccc2)c2ccccc12 | 7.27 | 3.93 µM | 11.6 | 14.1 µM | 6.61 | 8.05 | 26.1 | 14 | 8.73 | – | – | – | – | – | – | – | – | – | – | 14.6 µM
13 | Cc1ccc(Cl)c(NS(=O)(=O)c2ccc(-c3cnc(C4CC4)o3)cc2)c1 | > 63.3 | 4.17 µM | > 100 | 68.8 µM | > 100 | 22.4 | 14.8 | > 100 | > 89.7 | 0.0549 µM | 0.0674 µM | 0.275 | 3.31 µM | 0.0772 µM | 0.07 µM | 0.299 | 0.288 µM | 16 | 0.399 µM | 3.72 µM
14 | Cn1c(=O)c(Oc2ccc(F)cc2F)cc2cnc(N[C@@H]3CCOC3)nc21 | > 25 | > 25 µM | > 16.2 | > 25 µM | > 25 | > 25 | > 25 | > 25 | > 25 | > 25 µM | > 25 µM | > 11 | > 25 µM | > 25 µM | > 25 µM | > 25 | > 25 µM | > 25 | > 25 µM | > 25 µM
15 | CCC(=O)N1C/C(=C/c2ccc(Br)cc2)C(=O)/C(=C/c2ccc(Br)cc2)C1 | 1.02 | 1.56 µM | 1.5 | 5.98 µM | 1.2 | 0.553 | 1.39 | 3.22 | 1.28 | – | 0.588 µM | 0.607 | 1.73 µM | 0.546 µM | 0.186 µM | 0.653 | 1.02 µM | 0.357 | 0.996 µM | 2.45 µM
16 | Cn1cc(C2=C(c3cn(CCCN)c4ccccc34)C(=O)NC2=O)c2ccccc21 | 13.8 | 16.2 µM | > 18.8 | > 25 µM | 14.2 | 14.2 | 11.5 | 18.7 | 12.8 | 2.53 µM | 5.86 µM | 5.41 | 5.58 µM | 4.75 µM | 5.44 µM | 5.07 | 6.71 µM | 4.86 | 3.77 µM | 7.26 µM
17 | O=C(Nc1cc(F)c(F)cc1C(=O)O)c1ccc(-n2ccnc2)nn1 | > 100 | > 100 µM | > 100 | > 100 µM | > 100 | > 100 | > 100 | > 100 | > 100 | 27.9 µM | 42.4 µM | > 100 | > 100 µM | > 100 µM | > 100 µM | 81.9 | > 100 µM | > 100 | > 100 µM | > 100 µM
18 | O=C1Cc2cc(CCn3cncn3)c(Cl)cc2N1 | > 100 | > 100 µM | > 100 | > 100 µM | > 100 | > 100 | > 100 | > 100 | > 100 | 11.8 µM | > 100 µM | > 100 | 36.5 µM | > 100 µM | 5.42 µM | 8.72 | > 100 µM | > 100 | 10.1 µM | > 100 µM
19 | NCCCNc1nc2ccccc2c2c(=O)c3cccc(Cl)c3sc12 | 2.99 | – | 2.24 | 2.92 µM | 3.05 | – | 2.81 | 3.46 | 3.95 | 0.606 µM | – | 1.03 | 1.45 µM | 1.61 µM | – | 1.45 | 1.74 µM | 2.31 | 1.58 µM | 2.94 µM
20 | N#Cc1nc(C#N)c(Sc2ccccc2)c(Sc2ccccc2)c1Sc1ccccc1 | > 100 | 2.89 µM | 1.08 | 9.01 µM | – | 3.26 | 4.27 | 2.88 | 3.43 | 0.305 µM | 1.45 µM | 0.415 | 3.27 µM | 0.392 µM | 1.67 µM | 0.21 | 0.667 µM | 0.502 | 1.31 µM | 2.69 µM
21 | O=C(Nc1cc(Cl)ccc1O)c1ccccc1Nc1ccnc(C(F)(F)F)c1 | 11.6 | 4.8 µM | – | 6.23 µM | 8.8 | 8.13 | 7.95 | 14.1 | 16.8 | 2.83 µM | 1.7 µM | – | 2.21 µM | 3.28 µM | 2.74 µM | 2.46 | 3.69 µM | 4.72 | 2.1 µM | 4.27 µM
22 | CC[C@H](C)[C@H](NC(=O)[C@H]1CCCCN1C)C(=O)N(C)[C@H](C[C@@H](OC(C)=O)c1cccc(C(=O)N[C@@H](Cc2ccccc2)C[C@H](C)C(=O)O)n1)C(C)C | > 25 | 0.0165 µM and < 0.0025 µM | > 25 | > 25 µM | > 25 | > 25 | 0.0116 | > 25 | > 25 | 0.000529 µM and 0.0025 µM | 0.000389 µM and < 0.0025 µM | – | 0.00348 µM and 0.0025 µM | 0.00555 µM and 0.0025 µM | 0.00116 µM and 0.0025 µM | 0.0025 | 0.00286 µM and 0.0025 µM | – | 0.000482 µM and 0.0025 µM | 0.0193 µM and 0.00279 µM
23 | O=C1NC2(CCCCC2)C(=O)N1CCN(CCCl)CCCl | 25 | > 250 µM | > 250 | > 25 µM and 250 µM | > 25 | > 194 | > 25 | > 25 | > 25 | – | > 244 µM | > 25 | > 25 µM | – | > 25 µM | – | – | – | > 25 µM | > 250 µM
24 | COc1ccccc1[As]=[As]c1ccccc1OC (stereo unspecified) | 0.0707 | 0.0531 µM | 0.24 | 0.293 µM | 0.0853 | 0.24 | 0.182 | 0.173 | 0.141 | 0.0277 µM | 0.0234 µM | 0.0923 | 0.158 µM | 0.0377 µM | 0.11 µM | 0.0582 | 0.0542 µM | 0.0401 | 0.0468 µM | 0.163 µM
25 | O=C1Nc2ccccc2/C1=C\c1nc(-c2ccccc2F)n2ccccc12 | 29.4 | 4.38 µM | 10.8 | 12.4 µM | 10.1 | 14.4 | 12.9 | 12.9 | 14.2 | 11 µM | 1.9 µM | 2.12 | 3.46 µM | 3.44 µM | 3.49 µM | 3.37 | 3.26 µM | 4.05 | 2.8 µM | 11.4 µM
26 | Cc1c2ccncc2c(C)c2c1sc1ccccc12 | 8.98 | 29.6 µM | – | 34.4 µM | 17.5 | 31.2 | 35.9 | 29.7 | 48.9 | – | – | – | – | – | – | – | – | – | – | 23.1 µM
27 | COc1cc2ncnc(Nc3ccc(Oc4ccnc(C)c4)c(C)c3)c2cc1NC(=O)CC1CCSS1 (stereo unspecified) | 2.99 | 1.6 µM | 2.83 | 1.63 µM | > 50 | – | 2.94 | 6.31 | 1.84 | 0.365 µM | 0.853 µM | 0.853 | 0.854 µM | > 50 µM | – | 1.2 | 1.44 µM | 0.896 | 0.974 µM | 1.99 µM

From PubChem BioAssay (NCI)
